Measured values as given in patent US10543215B2, “Combination therapy of cardiac myosin activator and sinus node if current inhibitor” (AMGEN INC., priority 2015, dated 2020).

System: conscious telemetered beagle dogs
Test: Left-ventricular hemodynamic, mechanical and timing indices by radio-telemetry before and during IV OM or vehicle, on repeated oral IVA or placebo
Assay type: in vivo, beagle dog
Protocol: Healthy male beagle dogs (n=7) instrumented with radio-telemetry units providing continuous single-lead electrocardiogram (ECG), as well as systemic (arterial, AoP) and left-ventricular (LVP) pressure signals were used for this study. Following sling acclimation, the animals were assigned to receive repeated oral (via gavage) treatments with either Ivabradine (IVA, 5 mg/kg bid) or a volume-matched placebo-control (sterile water, CTRL) for 5 days, administered at a dose volume of 10 mL/kg, in a cross over design.
The animals were sling-restrained and were subjected to acute intravenous administration of either sterile water (VEH, on Days 4 and 11 of dosing) or Omecamtiv Mecarbil (OM, on Days 5 and 12 of dosing). OM treatments were performed over a 3-hour infusion duration, following a dose-escalation design targeting plasma concentrations of 600 and 1000 ng/mL (each over 90 minutes, with a 30 minute loading infusion followed by a 60 minute maintenance infusion) for a cumulative dose of 5.293 mg/kg (as shown in Table A below). The IV vehicle treatments were time- and volume-matched.
Telemetered data were collected continuously for at least 90 minutes prior to and during dosing, as well as for at least 20 hours post-dose. The LVP and ECG signals were digitized at a sampling rate of at least 1000 Hz. The data were analyzed for heart rate (HR) and left-ventricular hemodynamic/mechanical indices that were obtained from the pressure waveform, including mean systolic (MSP) and end-diastolic (filling, EDP) pressures, the peak rates of pressure change during systole/diastole (dP/dtmax/min), as well as the time-constant of relaxation (tau) and a contractility index (CI: dP/dtmax normalized by the pressure at dP/dtmax). The data were also analyzed for systolic and diastolic intervals, including the estimated durations of the systolic ejection (SET), contraction (CT), active relaxation (RT) and filling intervals (FT), as well as the systolic-to-diastolic interval ratio (S/D: SET/RT+FT), which were derived from the left-ventricular pressure waveform.
The left-ventricular indices were evaluated only in the sling-restrained animals before and during IV treatment with OM or vehicle. Cardiovascular responses at each dose level were monitored for up to 90 minutes, i.e., over 3 hours total (during IV dosing of VEH and OM on Days 4, 5, 11, and 12 in the dose administration paradigm). Overall, in-sling cardiovascular data are reported at the following pre-determined/targeted time points: prior to dosing (i.e., at baseline, PRE) and approximately at the end of each infusion period (i.e., up to 4 time points during dosing, D1 to D4). Signals were analyzed continuously in 5-minute epochs, with pre-administration (i.e., PRE) values representing the overall mean over at least 5-epochs (i.e., 25 minutes) taken immediately prior to the onset of dosing, while during-dosing values reflect 5-minute averages (i.e., 1 epoch) taken prior to the (estimated) termination of each infusion. Data are presented as both means with standard deviations in summarizing tables/figure; beat-to-beat plots against heart rate are part of the study file.

[1] = D1, end of 30-min loading infusion, target OM 600 ng/mL
[2] = D2, end of 60-min maintenance infusion, target OM 600 ng/mL
[3] = D3, end of 30-min loading infusion, target OM 1000 ng/mL
[4] = D4, end of 60-min maintenance infusion, target OM 1000 ng/mL
[5] = PRE, before IV dosing (baseline)
[6] = baseline after repeated oral IVA 5 mg/kg bid, mean pre-dosing averages across study days
[7] = baseline after repeated oral IVA 5 mg/kg bid, vs. placebo-control

## COc1cc2c(cc1OC)CC(=O)N(CCCN(C)C[C@H]1Cc3cc(OC)c(OC)cc31)CC2 [IVA]
[1]
  CT % vs. PRE: 4%
  CT (contraction time): 63.8 ms
  EDP % vs. PRE: −10%
  EDP (left-ventricular end-diastolic pressure): 14.4 mmHg
  FT % vs. PRE: 11%
  FT (filling time): 586 ms
  HR % vs. PRE: −9%
  HR (heart rate): 76 bpm
  MSP % vs. PRE: 0%
  MSP (left-ventricular mean systolic pressure): 138 mmHg
  RT % vs. PRE: 1%
  RT (relaxation time): 88 ms
  S/D % vs. PRE: −4%
  S/D (systolic to diastolic ratio, SET/RT + FT): 0.2
  SET % vs. PRE: 4%
  SET (systolic ejection time): 161 ms
  Tau % vs. PRE: 3 ± 2%
  Tau (left-ventricular relaxation time-constant): 28.7 ± 1.7 ms
  Vmax % vs. PRE: 0 ± 1%
  Vmax (estimated maximal velocity of myocardial contractile-element shortening): 36.9 ± 1.3 s⁻¹
  dP/dtmax % vs. PRE: −2%
  dP/dtmax (peak rate of LV pressure change during systole): 2,606 mmHg/s
  dP/dtmin % vs. PRE: −2%
  dP/dtmin (peak rate of LV pressure change during diastole): −2,365 mmHg/s
[2]
  CT % vs. PRE: 9%
  CT (contraction time): 67.2 ms
  EDP % vs. PRE: 0%
  EDP (left-ventricular end-diastolic pressure): 15.3 mmHg
  FT % vs. PRE: 8%
  FT (filling time): 571 ms
  HR % vs. PRE: −9%
  HR (heart rate): 76 bpm
  MSP % vs. PRE: 5%
  MSP (left-ventricular mean systolic pressure): 145 mmHg
  RT % vs. PRE: 4%
  RT (relaxation time): 90 ms
  S/D % vs. PRE: 0%
  S/D (systolic to diastolic ratio, SET/RT + FT): 0.25
  SET % vs. PRE: 6%
  SET (systolic ejection time): 163 ms
  Tau % vs. PRE: 6 ± 2%
  Tau (left-ventricular relaxation time-constant): 29.3 ± 1.0 ms
  Vmax % vs. PRE: −1 ± 1%
  Vmax (estimated maximal velocity of myocardial contractile-element shortening): 36.7 ± 0.8 s⁻¹
  dP/dtmax % vs. PRE: 2%
  dP/dtmax (peak rate of LV pressure change during systole): 2,704 mmHg/s
  dP/dtmin % vs. PRE: 4%
  dP/dtmin (peak rate of LV pressure change during diastole): −2,492 mmHg/s
[3]
  CT % vs. PRE: 6%
  CT (contraction time): 64.9 ms
  EDP % vs. PRE: −4%
  EDP (left-ventricular end-diastolic pressure): 14.5 mmHg
  FT % vs. PRE: 24%
  FT (filling time): 651 ms
  HR % vs. PRE: −17%
  HR (heart rate): 69 bpm
  MSP % vs. PRE: 3%
  MSP (left-ventricular mean systolic pressure): 143 mmHg
  RT % vs. PRE: 6%
  RT (relaxation time): 92 ms
  S/D % vs. PRE: −8%
  S/D (systolic to diastolic ratio, SET/RT + FT): 0.23
  SET % vs. PRE: 8%
  SET (systolic ejection time): 167 ms
  Tau % vs. PRE: 5 ± 3%
  Tau (left-ventricular relaxation time-constant): 29.2 ± 1.0 ms
  Vmax % vs. PRE: 1 ± 2%
  Vmax (estimated maximal velocity of myocardial contractile-element shortening): 37.2 ± 0.7 s⁻¹
  dP/dtmax % vs. PRE: 0%
  dP/dtmax (peak rate of LV pressure change during systole): 2,662 mmHg/s
  dP/dtmin % vs. PRE: 1%
  dP/dtmin (peak rate of LV pressure change during diastole): −2,425 mmHg/s
[4]
  CT % vs. PRE: 11%
  CT (contraction time): 67.9 ms
  EDP % vs. PRE: −9%
  EDP (left-ventricular end-diastolic pressure): 14.2 mmHg
  FT % vs. PRE: 9%
  FT (filling time): 577 ms
  HR % vs. PRE: −12%
  HR (heart rate): 74 bpm
  MSP % vs. PRE: 4%
  MSP (left-ventricular mean systolic pressure): 143 mmHg
  RT % vs. PRE: 5%
  RT (relaxation time): 91 ms
  S/D % vs. PRE: 0%
  S/D (systolic to diastolic ratio, SET/RT + FT): 0.25
  SET % vs. PRE: 7%
  SET (systolic ejection time): 165 ms
  Tau % vs. PRE: 3 ± 2%
  Tau (left-ventricular relaxation time-constant): 28.8 ± 1.5 ms
  Vmax % vs. PRE: 1 ± 1%
  Vmax (estimated maximal velocity of myocardial contractile-element shortening): 37.3 ± 1.0 s⁻¹
  dP/dtmax % vs. PRE: 2%
  dP/dtmax (peak rate of LV pressure change during systole): 2,702 mmHg/s
  dP/dtmin % vs. PRE: 2%
  dP/dtmin (peak rate of LV pressure change during diastole): −2,457 mmHg/s
[5]
  CT (contraction time): 61.4 ± 0.6 ms
  EDP (left-ventricular end-diastolic pressure): 15.7 mmHg
  FT (filling time): 535 ± 46 ms
  HR (heart rate): 85 bpm
  MSP (left-ventricular mean systolic pressure): 138 mmHg
  RT (relaxation time): 87 ± 1 ms
  S/D (systolic to diastolic ratio, SET/RT + FT): 0.26
  SET (systolic ejection time): 155 ± 2 ms
  Tau (left-ventricular relaxation time-constant): 27.9 ± 1.4 ms
  Vmax (estimated maximal velocity of myocardial contractile-element shortening): 37.1 ± 1.1 s⁻¹
  dP/dtmax (peak rate of LV pressure change during systole): 2,661 mmHg/s
  dP/dtmin (peak rate of LV pressure change during diastole): −2,407 mmHg/s
[6]
  CT: 61 ± 1 ms
  FT: 577 ± 49 ms
  HR: 82 ± 5 bpm
  LV-EDP: 16 ± 2 mmHg
  LV-MSP: 137 ± 3 mmHg
  LV-Tau: 28.5 ± 1.4 ms
  LV-Vmax: 37.0 ± 1.0 s⁻¹
  LV-dP/dtmax: 2,644 ± 79 mmHg/s
  LV-dP/dtmin: −2,367 ± 91 mmHg/s
  RT: 88 ± 1 ms
  S/D: 0.24 ± 0.01
  SET: 157 ± 2 ms
[7]
  CT change vs. CTRL: (−9 ± 1) %
  LV-MSP change vs. CTRL: (4 ± 2) %
  LV-Tau change vs. CTRL: (−3 ± 3) %
  LV-Vmax change vs. CTRL: (5 ± 3) %
  LV-dP/dtmin change vs. CTRL: (8 ± 3) %
  RT change vs. CTRL: (−2 ± 2) %
  SET change vs. CTRL: (4 ± 2) %
